Measured values taken from ChEMBL document CHEMBL5604063, “ASAP - DENV-2 NS2B-NS3 protease fluorescence dose response” (2024).
Where “and” joins values, the source holds several entries; their conditions need not be identical. Identical values can stand only once.

Key:
[1] = molecular target: T1, Genome polyprotein (dengue virus type 2, UniProt P29990); assay type: functional, Thailand/16681/1984
[2] = molecular target: T1, Genome polyprotein; assay type: functional, Thailand/16681/1984; remark: listed apart in the source

T1 sequence (P29990 1346-1475 limits assumed): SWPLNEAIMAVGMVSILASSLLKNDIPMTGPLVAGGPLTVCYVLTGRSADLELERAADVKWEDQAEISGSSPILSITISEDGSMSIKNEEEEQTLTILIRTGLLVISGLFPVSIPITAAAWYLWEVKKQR
T1 sequence (P29990 1476-2093 limits assumed): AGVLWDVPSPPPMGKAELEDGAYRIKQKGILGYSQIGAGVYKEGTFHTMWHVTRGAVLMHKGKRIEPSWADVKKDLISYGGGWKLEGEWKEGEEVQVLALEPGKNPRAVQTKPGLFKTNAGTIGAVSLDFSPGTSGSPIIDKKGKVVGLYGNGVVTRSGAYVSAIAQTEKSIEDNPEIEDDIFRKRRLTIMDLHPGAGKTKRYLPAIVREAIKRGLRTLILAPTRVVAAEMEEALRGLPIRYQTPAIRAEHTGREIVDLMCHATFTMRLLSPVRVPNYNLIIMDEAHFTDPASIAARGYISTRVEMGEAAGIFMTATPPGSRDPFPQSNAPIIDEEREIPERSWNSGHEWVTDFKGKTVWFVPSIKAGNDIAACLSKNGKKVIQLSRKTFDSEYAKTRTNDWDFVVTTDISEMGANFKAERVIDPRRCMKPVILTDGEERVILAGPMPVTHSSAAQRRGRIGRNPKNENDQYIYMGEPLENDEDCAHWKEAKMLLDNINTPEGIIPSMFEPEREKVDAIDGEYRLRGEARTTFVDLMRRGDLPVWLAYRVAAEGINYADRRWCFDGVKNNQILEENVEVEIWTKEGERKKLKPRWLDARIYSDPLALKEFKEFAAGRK

SMILES | IC50 [1] | IC50 [2]
C[C@H](CC(=O)O)N(C)C(=O)c1cc(Cl)cc(NC(=O)OCc2ccccc2)c1 | > 100 µM | > 99.5 µM
Clc1ccc2[nH]cc(Cc3ccc(-c4nn[nH]n4)cc3)c2c1 | 16.4 µM | 58.7 µM
C[C@H](CC(=O)O)NC(=O)c1cc(Cl)cc(NC(=O)OCc2ccccc2)c1 | > 100 µM | > 99.5 µM
CCc1sc(C(=O)Nc2cccc(-c3nnn[nH]3)c2)cc1C | > 100 µM | > 99.5 µM
O=C(O)CCc1ccc(NC(=O)c2cc(Cl)cc(C3CC3)c2)cc1 | > 100 µM | > 99.5 µM
CC(C)C[C@H](NC(=O)c1cc(Cl)cc(NC(=O)OCc2ccccc2)c1)c1nnn[nH]1 | 28.3 µM | 74.6 µM
O=C(Nc1cc(Cl)cc(C(=O)Nc2ccccc2[C@@H]2C[C@H]2C(=O)O)c1)OCc1ccccc1 | > 100 µM | > 99.5 µM
NCc1cc(C(=O)N[C@H]2CCCOC2)cc([C@@H]2C[C@H]2c2cc(Cl)cc(NC(=O)OCc3ccccc3)c2)c1 | > 100 µM | > 99.5 µM
O=C(Nc1cc(Cl)cc(C(=O)NC[C@H]2C[C@@H]2C(=O)O)c1)OCc1ccccc1 | > 100 µM | > 99.5 µM
O=C(Nc1cc(Cl)cc(C(=O)NCc2ccc(-c3nnn[nH]3)cc2)c1)OCc1ccccc1 | 11.7 µM and 9.92 µM | 21 µM
CC(C)(C)NC(=O)[C@H](Nc1cccc(-c2nn[nH]n2)c1)c1cc(Cl)cc(NC(=O)OCc2ccccc2)c1 | 7.15 µM and 7.59 µM | 11.3 µM
O=C(Nc1cc(Cl)cc(C(=O)N2CCC[C@H]2c2nnn[nH]2)c1)OCc1ccccc1 | > 100 µM | > 99.5 µM
C=CC[C@H](Nc1ccc(-c2nn[nH]n2)cc1)c1cc(Cl)cc(NC(=O)OCc2ccccc2)c1 | 5.41 µM and 5.49 µM | 6.6 µM
NCc1cc(C(=O)N2CCNC(=O)C2)cc([C@@H]2C[C@H]2c2cc(Cl)cc(NC(=O)OCc3ccccc3)c2)c1 | > 100 µM | 49.1 µM
O=C(O)c1cccc(NC(=O)c2cc(Cl)cc3[nH]ncc23)c1 | > 100 µM | > 99.5 µM
O=C(Nc1cc(Cl)cc([C@H]2CN(Cc3ccccc3)C[C@@H]2c2cccc(-c3nn[nH]n3)c2)c1)OCc1ccccc1 | 5.87 µM and 5.96 µM | 6.12 µM
CCCNC(=O)[C@H](Nc1cccc(-c2nn[nH]n2)c1)c1cc(Cl)cc(NC(=O)OCc2ccccc2)c1 | 9.41 µM and 9.81 µM | 17.3 µM
CC(C)NC(=O)[C@H](Nc1cccc(-c2nn[nH]n2)c1)c1cc(Cl)cc(NC(=O)OCc2ccccc2)c1 | 12.2 µM | 21.5 µM
O=C(Nc1cc(Cl)cc(C(=O)N2CCC(c3nn[nH]n3)CC2)c1)OCc1ccccc1 | > 100 µM | > 99.5 µM
CS(=O)(=O)c1cc(CN)cc([C@@H]2C[C@H]2c2cc(Cl)cc(NC(=O)OCc3ccccc3)c2)c1 | > 100 µM | > 99.5 µM
CCc1[nH]c(-c2ccccc2)cc1C(=O)Nc1cccc(-c2nnn[nH]2)c1 | 33.1 µM | > 99.5 µM
CN(C)C(=O)c1cc(CN)cc([C@@H]2C[C@H]2c2cc(Cl)cc(NC(=O)OCc3ccccc3)c2)c1 | > 100 µM | 31.6 µM
CS(=O)(=O)NC(=O)c1cc(CN)cc(NC(=O)c2cc(Cl)cc(NC(=O)OCc3ccccc3)c2)c1 | > 100 µM | > 99.5 µM
CC(=Cc1cc(Cl)cc(NC(=O)OCc2ccccc2)c1)c1cccc(CN)c1 | > 100 µM | 23.4 µM
C#C[C@H](Nc1cccc(C(=O)O)c1)c1cc(Cl)cc2[nH]ncc12 | > 100 µM | > 99.5 µM

SMILES | IC50 [1] | IC50 [2]
CCc1cc(C(=O)Nc2cccc(-c3nnn[nH]3)c2)ccc1Cl | 67.2 µM | > 99.5 µM
C[C@H](NC(=O)c1cc(Cl)cc(NC(=O)OCc2ccccc2)c1)C(=O)O | > 100 µM | > 99.5 µM
O=C(Nc1ccc(-n2nn[nH]c2=O)cc1)c1cc(Cl)cc(C2CC2)c1 | 62.2 µM | > 99.5 µM
Cc1c(C(=O)Nc2cccc(-c3nnn[nH]3)c2)n[nH]c1-c1ccc(Cl)cc1 | 18.2 µM | 42 µM
COC[C@H](NC(=O)c1cc(Cl)cc(NC(=O)OCc2ccccc2)c1)c1nnn[nH]1 | > 100 µM | > 99.5 µM
CC(C)[C@H](NC(=O)c1cc(Cl)cc(NC(=O)OCc2ccccc2)c1)C(=O)O | > 100 µM | > 99.5 µM
CNC(=O)[C@H](Nc1ccc(-c2nnn[nH]2)cc1)c1cc(Cl)cc(C2CC2)c1 | > 100 µM | > 99.5 µM
O=C(Nc1cc(Cl)cc(C(=O)N2CCC[C@H](c3nnn[nH]3)C2)c1)OCc1ccccc1 | > 100 µM | > 99.5 µM
O=C(Nc1cc(Cl)cc([C@H](Nc2cccc(-c3nn[nH]n3)c2)C(=O)NCc2ccccc2)c1)OCc1ccccc1 | 7.11 µM and 6.42 µM | 8.05 µM
C=CC[C@H](Nc1cc(Cl)cc(NC(=O)OCc2ccccc2)c1)c1cccc(CN)c1 | > 100 µM | 37.5 µM
O=C(Nc1cccc(-c2nnn[nH]2)c1)c1ccc(-c2cccnc2)s1 | > 100 µM | > 99.5 µM
CCOC(=O)[C@H]1[C@H](c2cc(Cl)cc(NC(=O)OCc3ccccc3)c2)[C@H]1c1cccc(-c2nnn[nH]2)c1 | 13.9 µM | 13.1 µM
O=C(Nc1cc(Cl)cc(C(=O)Nc2cccc3c2OC[C@H](C(=O)O)C3)c1)OCc1ccccc1 | 19.1 µM | 50.4 µM
NCc1cc(C(=O)N2CCOCC2)cc([C@@H]2C[C@H]2c2cc(Cl)cc(NC(=O)OCc3ccccc3)c2)c1 | > 100 µM | 44.5 µM
NCc1cc(/C=C/C(=O)O)cc(NC(=O)c2cc(Cl)cc(NC(=O)OCc3ccccc3)c2)c1 | > 100 µM | 94.6 µM
CCOC(=O)[C@H]1[C@H](c2cccc(CN)c2)[C@H]1c1cc(Cl)cc(NC(=O)OCc2ccccc2)c1 | > 100 µM | > 99.5 µM
C=CC[C@H](Nc1cccc(C(=O)O)c1)c1cc(Cl)cc2[nH]ncc12 | > 100 µM | > 99.5 µM
Clc1ccc2[nH]cc(Cc3cccc(-c4nn[nH]n4)c3)c2c1 | 22.4 µM | 63.1 µM
C=CC[C@H](Nc1cc(Cl)cc(NC(=O)OCc2ccccc2)c1)c1ccc(-c2nn[nH]n2)cc1 | 5.69 µM and 5.81 µM | 7.02 µM
CC(C)CNC(=O)[C@H](Nc1cccc(-c2nn[nH]n2)c1)c1cc(Cl)cc(NC(=O)OCc2ccccc2)c1 | 9.91 µM and 9.02 µM | 12.7 µM
O=C(Nc1cc(Cl)cc([C@H](Nc2cccc(-c3nn[nH]n3)c2)C(=O)N[C@H]2CCOC2)c1)OCc1ccccc1 | 22.9 µM | 40.3 µM
CCCn1cc(-c2cc(Cl)cc(NC(=O)OCc3ccccc3)c2)c(C(=O)O)n1 | > 100 µM | > 99.5 µM
O=C(Nc1cccc(-n2nn[nH]c2=O)c1)c1cc(Cl)cc(C2CC2)c1 | 50.1 µM | 98.7 µM
O=C(Nc1cc(Cl)cc([C@H](Nc2cccc(-c3nn[nH]n3)c2)C(=O)NC[C@H]2CCCO2)c1)OCc1ccccc1 | 17.6 µM | 33.7 µM
NCc1cc(CO)cc([C@H]2C[C@@H]2c2cc(Cl)cc(NC(=O)OCc3ccccc3)c2)c1 | > 100 µM | 29.7 µM

SMILES | IC50 [1] | IC50 [2]
O=C(Nc1cc(Cl)cc(-c2ccn3c(C(=O)O)cnc3c2)c1)OCc1ccccc1 | 13.6 µM | > 99.5 µM
O=C(Nc1cc(Cl)cc(-c2ccc3[nH]nc(C(=O)O)c3c2)c1)OCc1ccccc1 | 6.27 µM and 5 µM | 9.15 µM
O=C(O)Cn1ncc2cc(-c3cc(Cl)cc(NC(=O)OCc4ccccc4)c3)ccc21 | 10.7 µM and 11 µM | 20.8 µM
O=C(Nc1cc(Cl)cc(CNc2cccc(-c3nn[nH]n3)c2)c1)OCc1ccccc1 | 8.36 µM and 5.15 µM | 11.6 µM
OCC#C[C@H](Nc1ccc(-c2nnn[nH]2)cc1)c1cc(Cl)cc(C2CC2)c1 | 40.8 µM | > 99.5 µM
O=C(Nc1cc(Cl)cc(-c2ccc3cc(C(=O)O)[nH]c3c2)c1)OCc1ccccc1 | 7.4 µM and 4.18 µM | 7.42 µM
O=C(Nc1cc(Cl)cc(-c2ccc3nc(C(=O)O)ncc3c2)c1)OCc1ccccc1 | 11.6 µM and 12.4 µM | 11.4 µM
NCc1ccc(C(=O)O)c(NC(=O)c2cc(Cl)cc(NC(=O)OCc3ccccc3)c2)c1 | > 100 µM | > 99.5 µM
CC(C)CNC(=O)[C@H](Nc1cccc(-c2nnn[nH]2)c1)c1cc(Cl)cc(C2CC2)c1 | 47.3 µM | 74.4 µM
O=C(Nc1cc(Cl)cc(C(=O)NC2(c3nnn[nH]3)CC2)c1)OCc1ccccc1 | > 100 µM | > 99.5 µM
CC(=Cc1cccc(CN)c1)c1cc(Cl)cc(NC(=O)OCc2ccccc2)c1 | > 100 µM | 63.2 µM
O=C(Nc1cc(Cl)cc(-c2cnn3ccc(C(=O)O)cc23)c1)OCc1ccccc1 | > 100 µM | > 99.5 µM
Clc1cccc([C@H](C#Cc2ccccc2)Nc2cccc(-c3nn[nH]n3)c2)c1 | 6.31 µM and 4.12 µM | 7.71 µM
CS(=O)(=O)NC(=O)c1cc(CN)cc([C@@H]2C[C@H]2c2cc(Cl)cc(NC(=O)OCc3ccccc3)c2)c1 | > 100 µM | > 99.5 µM
O=C(Nc1cc(Cl)cc(C(=O)Nc2cc(C(=O)O)ccn2)c1)OCc1ccccc1 | 35.6 µM | > 99.5 µM
CNC(=O)[C@H](Nc1cc(Cl)cc(NC(=O)OCc2ccccc2)c1)c1ccc(-c2nn[nH]n2)cc1 | 19.2 µM | 45.6 µM
COCCNC(=O)[C@H](Nc1cccc(-c2nn[nH]n2)c1)c1cc(Cl)cc(NC(=O)OCc2ccccc2)c1 | 28 µM | 59.8 µM
CC(=Cc1cccc(-c2nnn[nH]2)c1)c1cc(Cl)cc(NC(=O)OCc2ccccc2)c1 | 8.82 µM and 11.8 µM | 9.44 µM
O=C(O)C[C@H]1CCCN1C(=O)c1cc(Cl)cc(NC(=O)OCc2ccccc2)c1 | > 100 µM | > 99.5 µM
O=C(Nc1cc(Cl)cc(-c2cccc3c(C(=O)O)cccc23)c1)OCc1ccccc1 | 7.51 µM | 9.78 µM
NCc1cc(Br)cc([C@H]2C[C@@H]2c2cc(Cl)cc(NC(=O)OCc3ccccc3)c2)c1 | 33.5 µM | 16.1 µM
CNC(=O)[C@H](Nc1cccc(-c2nnn[nH]2)c1)c1cc(Cl)cc(C2CC2)c1 | > 100 µM | > 99.5 µM
O=C(Nc1cc(Cl)cc(N[C@H](C#CCO)c2ccc(-c3nn[nH]n3)cc2)c1)OCc1ccccc1 | 11.7 µM | 26.4 µM
CNC(=O)[C@H](Nc1ccc(-c2nn[nH]n2)cc1)c1cc(Cl)cc(NC(=O)OCc2ccccc2)c1 | 40.7 µM | 50 µM
